In US20260232682A1, “GSPT1 DEGRADER COMPOUNDS” (Captor Therapeutics S.A., priority 2023, published 2026):
pKi: −log10 of the molar value.

Tests used:
[1] = Chemical stability in MV-4-11 medium; settings: 37° C., concentration 10 μM
Protocol: Next, 500 μL of each solution was transferred to the 96-deep-well plate. Three replicates for each compound were performed. Plate was afterwards incubated at 37° C. with shaking (220 rpm). 50 μL of sample were withdrawn for the each timepoint (0, 1, 3, 6, 24, 48, 72, and 168 hours) and immediately mixed with 50 μL of acetonitrile. Next, samples were centrifuged at 3900 rpm, 10° C. for 20 minutes. 40 μL of supernatant was diluted with 120 μL of acetonitrile containing internal standard (IS) (10 μM), mixed, and analyzed by LC-MS/MS.
Thermo Fisher Scientific Altis+ coupled with a Vanquish system were used for UHPLC-MS/MS analysis. Analytes were separated on a Kinetex XB-C18 2.6 μm, 50×2.1 mm column, using gradient of water with 0.1% (v/v) formic acid (solvent A) and acetonitrile with 0.1% (v/v) formic acid (solvent B): 0.0 min 5% B, 0.5 min 5% B, 1.0 min 70% B, 3.0 min 95% B, 3.5 min 95% B, 3.7 min 5% B, 5 min 5% B. The mobile phase flow rate was set to 0.3 mL/min and the column was kept in 40° C. 1 μL of samples were injected. The MS/MS analysis was performed using SRM mode in positive ionization. Source parameters were set as follow: Ion Source Type H-ESI, Spray Voltage 3800 V, Sheath Gas 50 Arb, Aux Gas 10 Arb, Sweep Gas 1 Arb, Ion Transfer Tube Temp 325° C., Vaporizer Temp 350° C., Collision Gas Pressure 1.5 mTorr, Q1/Q3 Resolution (FWHM) 0.7. Three transitions were monitored for each analyte and for the internal standard:
Quantitation was based on the peak area ratio between the test compound and IS. The amount of compound remaining in the sample was calculated as follow:
The slope of logarithmic curve of percent remaining versus time has been used for calculation of half-life (t_half). First, the elimination constant (k) was calculated using the equation:
Next, half-life (t_half) was calculated using equation:

Hep3B, Kelly, KG-1 = assay: Growth inhibition of cancer cell lines (summary statement); format: cell-based; settings: hepatocellular carcinoma (Hep3B), neuroblastoma (Kelly), leukemia (KG-1)
[2] = biological target: T1, [SALL4 ZF2]-[compound]-[CRBN/DDB1] ternary complex (Homo sapiens, UniProt Q96SW2+Q9UJQ4); assay: AlphaLISA assay for off-target recruitment detection, SALL4 ZF2; format: binding; settings: 1 μM compound; normalized to Lenalidomide; read-out: Normalized ternary complex response, SALL4 ZF2
T1 construct: SALL4 ZF2
T1 sequence (Q9UJQ4 410-432 limits assumed): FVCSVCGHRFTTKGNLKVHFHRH
T1 sequence (Q96SW2 whole entry): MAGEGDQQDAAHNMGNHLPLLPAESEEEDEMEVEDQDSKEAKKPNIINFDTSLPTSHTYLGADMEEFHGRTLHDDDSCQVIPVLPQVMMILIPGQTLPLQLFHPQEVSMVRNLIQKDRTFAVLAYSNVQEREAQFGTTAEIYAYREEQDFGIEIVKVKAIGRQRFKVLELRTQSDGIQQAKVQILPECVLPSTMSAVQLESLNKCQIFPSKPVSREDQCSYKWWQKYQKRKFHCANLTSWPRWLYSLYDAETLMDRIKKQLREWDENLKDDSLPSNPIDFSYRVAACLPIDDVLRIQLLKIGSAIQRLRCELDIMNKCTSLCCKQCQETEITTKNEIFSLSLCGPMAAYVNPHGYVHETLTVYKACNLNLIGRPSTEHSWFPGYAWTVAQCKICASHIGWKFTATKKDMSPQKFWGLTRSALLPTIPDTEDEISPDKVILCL
T1 sequence (Q16531 whole entry partner): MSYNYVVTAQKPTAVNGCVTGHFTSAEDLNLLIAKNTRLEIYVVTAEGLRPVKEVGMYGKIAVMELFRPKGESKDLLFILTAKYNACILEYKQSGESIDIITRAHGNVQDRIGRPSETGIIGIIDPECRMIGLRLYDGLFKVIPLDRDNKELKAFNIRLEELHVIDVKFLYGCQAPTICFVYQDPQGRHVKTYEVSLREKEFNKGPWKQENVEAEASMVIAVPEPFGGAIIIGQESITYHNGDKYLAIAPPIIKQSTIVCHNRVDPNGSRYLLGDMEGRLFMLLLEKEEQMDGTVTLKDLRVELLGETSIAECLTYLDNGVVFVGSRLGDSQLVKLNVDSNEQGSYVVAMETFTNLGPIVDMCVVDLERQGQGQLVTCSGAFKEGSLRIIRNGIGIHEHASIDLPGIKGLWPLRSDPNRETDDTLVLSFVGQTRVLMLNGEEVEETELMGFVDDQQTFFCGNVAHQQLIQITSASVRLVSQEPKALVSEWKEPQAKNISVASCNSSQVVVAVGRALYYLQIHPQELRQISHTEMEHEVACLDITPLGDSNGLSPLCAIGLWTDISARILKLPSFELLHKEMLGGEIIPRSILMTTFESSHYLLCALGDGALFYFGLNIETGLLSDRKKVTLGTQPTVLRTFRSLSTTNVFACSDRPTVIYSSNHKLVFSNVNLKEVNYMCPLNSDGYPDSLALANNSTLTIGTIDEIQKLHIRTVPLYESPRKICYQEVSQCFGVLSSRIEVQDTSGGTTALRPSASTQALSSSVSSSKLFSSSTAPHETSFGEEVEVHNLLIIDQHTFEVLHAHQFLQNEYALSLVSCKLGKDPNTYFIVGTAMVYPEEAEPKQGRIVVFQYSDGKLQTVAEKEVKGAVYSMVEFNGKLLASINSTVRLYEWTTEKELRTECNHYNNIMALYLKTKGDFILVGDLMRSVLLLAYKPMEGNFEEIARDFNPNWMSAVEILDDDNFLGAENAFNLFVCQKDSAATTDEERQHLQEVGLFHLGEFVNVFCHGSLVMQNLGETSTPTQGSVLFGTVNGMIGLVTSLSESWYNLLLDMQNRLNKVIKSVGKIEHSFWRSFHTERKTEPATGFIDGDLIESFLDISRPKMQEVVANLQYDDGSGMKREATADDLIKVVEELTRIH
Protocol: (§1) The ability of the molecular glue compounds of the invention to mediate the proximity of CRBN with its known neo-substrates (shown in Table 3) was assessed using AlphaLISA to detect the formation of a [neo-substrate]-[compound of formula (I)]-[CRBN/DDB1] ternary complex.
(§2) Two types of protein solution were prepared: • neo-substrate, 40 μg/ml AlphaScreen Donor Beads (Table 3) in PBS (10 mM phosphate buffer, 137 mM NaCL, 2.7 mM KCl, pH 7.4) buffer supplemented with Tween-20 (Table 3) and 1 mM DTT, • 200 nM 6×His-CRBN/DDB1, 40 μg/ml AlphaLISA Anti-6×His Acceptor beads in PBS buffer with Tween-20 (Table 3) and 1 mM DTT.
(§3) The prepared solutions were incubated at room temperature for 30 min and then the solution containing the donor beads was mixed with the solution containing the acceptor beads.
(§4) The tested compounds were dispensed onto a white 384-well AlphaPlate 384 SW. DMSO was backfilled to all wells, resulting in a final DMSO content of 2%. Wells containing only DMSO served as background. Next, 10 μl of solution with donor and acceptor beads was added to the wells.
(§5) The plate was sealed with transparent film and shaken using a VibroTurbulator for 60 sec at room temperature, level 3. The plate was then spun down shortly (10 sec, 1000 rcf, room temperature) and incubated at 25° C. for 30 min.
(§6) The read-out was performed with PerkinElmer Enspire Multimode Plate Reader (method for AlphaLISA 384-well low volume, Filterset: λexc=680 nm, λem=615 nm).
(§7) The results were analyzed as follows: • 1) an average of luminescence for background signal was calculated and used as a negative control; • 2) an average of the maximum measured luminescence for reference compound (Table 3) was calculated and used as an internal positive control; • 3) raw luminescence values were normalized against positive and negative controls; • 4) Normalized responses to reference molecular glue were determined.

[3] = biological target: T2, [IKZF2 ZF2]-[compound]-[CRBN/DDB1] ternary complex (Homo sapiens, UniProt Q96SW2+Q9UKS7); assay: AlphaLISA assay for off-target recruitment detection, IKZF2 ZF2; format: binding; settings: 1 μM compound; normalized to Helios modulator; read-out: Normalized ternary complex response, IKZF2 ZF2
T2 construct: IKZF2 ZF2
T2 sequence (Q9UKS7 140-162 limits assumed): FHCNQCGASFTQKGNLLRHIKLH
T2 sequence (Q96SW2 whole entry): as the sequence (Q96SW2 whole entry) above
T2 sequence (Q16531 whole entry partner): as the sequence (Q16531 whole entry partner) above
Protocol: as §1, §2, §3, §4, §5, §6, §7

[4] = biological target: CRBN/DDB1 protein complex (Homo sapiens, UniProt Q96SW2); assay: CRBN displacement TR-FRET assay; settings: Thalidomide-Red tracer, 6×His-CRBN/DDB1; read-out: CRBN binding Ki
Sequence of CRBN/DDB1 protein complex (Q96SW2 whole entry, species assumed): as the sequence (Q96SW2 whole entry) above
Sequence of CRBN/DDB1 protein complex (Q16531 whole entry partner, species assumed): as the sequence (Q16531 whole entry partner) above
Protocol: CRBN/DDB1 protein complex was mixed with Thalidomide-Red and a compound to be tested (the “test compound”). The test solution contained PPI Europium detection buffer, 1 mM DTT, 6.8 nM Thalidomide-Red (the tracer), 5 nM 6×His-CRBN/DDB1 protein, 0.5 nM Anti-6× His-Eu cryptate, 1% DMSO. The test solution was added to a 384-well assay plate.
The plate was spun-down (1 min, 1000 rpm, 22° C.) and then shaken using a VibroTurbulator for 30 sec at room temperature (20-25° C.), with the frequency set to level 10. The assay plate with protein and the tracer was incubated for 180 min at room temperature (20-25° C.) prior to read-out with a plate reader. The read-out was performed with plate reader (Pherastar, BMG Labtech) in time resolved fluorescence mode. Filter settings: TR 337 665 620.
The CRBN displacement TR-FRET experiment was carried out with various concentrations of the test compounds in order to measure Ki values.
The Ki values of competitive inhibitors were calculated using the equation based on the IC50 values of relationship between compound concentration and measured […], the Kd value of the Thalidomide-Red and CRBN/DDB1 complex, and the concentrations of the protein and the tracer in the displacement assay (as described by Cheng and Prusoff, Biochem Pharmacol 1973; 22:3099-3108).

[5] = biological target: T3, [IKZF1 ZF2]-[compound]-[CRBN/DDB1] ternary complex (Homo sapiens, UniProt Q13422+Q96SW2); assay: AlphaLISA assay for off-target recruitment detection, IKZF1 ZF2; format: binding; settings: 1 μM compound; normalized to Lenalidomide; read-out: Normalized ternary complex response, IKZF1 ZF2
T3 construct: IKZF1 ZF2
T3 sequence (Q13422 145-167 limits assumed): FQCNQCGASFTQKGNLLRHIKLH
T3 sequence (Q96SW2 whole entry): as the sequence (Q96SW2 whole entry) above
T3 sequence (Q16531 whole entry partner): as the sequence (Q16531 whole entry partner) above
Protocol: as §1, §2, §3, §4, §5, §6, §7

[6] = biological target: T4, [GSPT1]-[compound of formula (I)]-[CRBN/DDB1] complex (Homo sapiens, UniProt P15170+Q96SW2); assay: HTRF ternary complex assay (GSPT1); format: binding; settings: read-out: HTRF ternary complex Average pEC50 by molecule (converted)
T4 sequence (P15170 whole entry): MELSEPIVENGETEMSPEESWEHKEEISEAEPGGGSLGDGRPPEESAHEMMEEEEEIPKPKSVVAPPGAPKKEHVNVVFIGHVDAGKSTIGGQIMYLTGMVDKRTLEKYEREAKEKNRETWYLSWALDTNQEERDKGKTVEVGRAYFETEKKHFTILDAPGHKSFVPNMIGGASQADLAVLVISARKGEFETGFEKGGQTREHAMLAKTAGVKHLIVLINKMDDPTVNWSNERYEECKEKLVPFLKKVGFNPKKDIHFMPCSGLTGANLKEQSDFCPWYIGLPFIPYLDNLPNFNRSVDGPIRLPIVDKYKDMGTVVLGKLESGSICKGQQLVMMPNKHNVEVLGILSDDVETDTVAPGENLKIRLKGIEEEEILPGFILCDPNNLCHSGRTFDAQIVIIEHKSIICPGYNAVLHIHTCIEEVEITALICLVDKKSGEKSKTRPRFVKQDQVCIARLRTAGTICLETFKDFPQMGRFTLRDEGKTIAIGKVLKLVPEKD
T4 sequence (Q96SW2 whole entry): as the sequence (Q96SW2 whole entry) above
T4 sequence (Q16531 whole entry partner): as the sequence (Q16531 whole entry partner) above
Protocol: The effect of the molecular glue compounds of the invention on the formation of a ternary complex composed of [GSPT1]-[compound of formula (I)]-[CRBN/DDB1] was investigated.
Mix solution of proteins and reagents was prepared: • 48 nM GSPT1, 52.8 nM 6×His-CRBN/DDB1, 3 nM of Streptavidin-Eu cryptate ([…]) and 6.67 nM of Anti-6×his-d2 ([…]) was prepared in PPI Europium detection buffer (purchased from Cisbio) with 1 mM DTT.
The tested compounds in dose-response were dispensed onto a white 384-well low volume plate (Greiner, 784075). DMSO was backfilled to all wells, resulting in a final DMSO content of 0.5%. Wells containing only DMSO served as background.
The plate was sealed with transparent film and shaken using a VibroTurbulator for 60 sec at level 3.
The plate was then spun down shortly (10 sec, 1000 rcf) and incubated at 25° C. for 180 min.
The read-out was performed with plate reader (Pherastar, BMG Labtech) in time resolved fluorescence mode. Filter settings: TR 337 665 620.
The results were analyzed as follows: • 1) an average of fluorescence for background signal was calculated and used as a negative control; • 2) raw fluorescence values for tested compounds were normalized against negative controls; • 3) saturation curve was fitted to specific binding with Hill slope model; • 4) EC50 and pEC50 values were determined.

[7] = biological target: T4, [GSPT1]-[compound of formula (I)]-[CRBN/DDB1] complex; assay: AlphaLISA ternary complex formation assay (GSPT1); format: binding; settings: 0.5 h; 1 μM compound; normalized to reference compound CC-885; read-out: Normalized AlphaLISA ternary complex average signal at 1 μM molecule
Protocol: The effect of the molecular glue compounds of the invention on the formation of a ternary complex composed of [GSPT1]-[compound of formula (I)]-[CRBN/DDB1] was investigated with two methods: AlphaLISA dose response assay or HTRF ternary complex assay.
Two types of protein solution were prepared: • 200 nM biotinylated GSPT1 (Table 3), 40 μg/ml AlphaScreen Streptavidin-coated Donor Beads in HBS (10 mM HEPES, 150 mM NaCL, pH 7.4) buffer with 0.1% Tween-20 and 1 mM DTT, • 200 nM 6×His-CRBN/DDB1, 40 μg/ml AlphaLISA Anti-6×His Acceptor beads in HBS buffer with 0.1% Tween-20 and 1 mM DTT.
as §3, §4, §5, §6
as §7, with “2)” for “2) an”, “(structure shown in Table 3 below)” for “(Table 3)”, “positive control” for “reference molecular glue”

[8] = biological target: [CK1α]-[compound]-[CRBN/DDB1] ternary complex (Homo sapiens, UniProt P48729+Q96SW2); assay: AlphaLISA assay for off-target recruitment detection, CK1α; format: binding; settings: 1 μM compound; normalized to FPFT-2216; read-out: Normalized ternary complex response, CK1α
Sequence of [CK1α]-[compound]-[CRBN/DDB1] ternary complex (P48729 whole entry): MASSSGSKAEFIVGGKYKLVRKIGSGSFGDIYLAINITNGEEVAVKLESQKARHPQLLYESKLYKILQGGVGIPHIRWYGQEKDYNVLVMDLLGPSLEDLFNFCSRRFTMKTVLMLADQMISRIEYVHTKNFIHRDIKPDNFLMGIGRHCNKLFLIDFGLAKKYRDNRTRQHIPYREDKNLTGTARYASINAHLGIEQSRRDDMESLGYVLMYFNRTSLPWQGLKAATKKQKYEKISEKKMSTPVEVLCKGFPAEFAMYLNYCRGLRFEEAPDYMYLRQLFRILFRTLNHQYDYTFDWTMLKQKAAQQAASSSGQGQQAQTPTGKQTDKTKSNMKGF
Sequence of [CK1α]-[compound]-[CRBN/DDB1] ternary complex (Q96SW2 whole entry): as the sequence (Q96SW2 whole entry) above
Sequence of [CK1α]-[compound]-[CRBN/DDB1] ternary complex (Q16531 whole entry partner): as the sequence (Q16531 whole entry partner) above
Protocol: as §1, §2, §3, §4, §5, §6, §7

SMILES	% remaining at 24 hrs [1]	t_half [hours] [1]	inhibition of growth of cancer types (Hep3B, Kelly, KG-1)	activation at 1 µM [2] [%]	activation at 1 µM [3] [%]	pKi [4]	activation at 1 µM [5] [%]	EC50 [6] [µM]	activation at 1 µM [7] [%]	activation at 1 µM [8] [%]
Cc1nc2cccc(N)c2c(=O)n1C1CCC(=O)NC1=O (centres unmarked) [avadomide]	d (5%≤d<10%)	C (5 hrs≤C<10 hrs)	–	–	–	–	–	–	–	–
Nc1cccc2c1CN(C1CCC(=O)NC1=O)C2=O (centres unmarked) [lenalidomide]	e (e<5%)	D (D<5 hrs)	inactive	–	–	–	–	–	–	–
O=C1CCC(N2Cc3cc(CNC(=O)C(F)(F)c4ccc(Cl)cc4)ccc3C2=O)C(=O)N1 (centres unmarked) [eragidomide]	–	D (D<5 hrs)	–	–	–	–	–	–	–	–
Cc1ccc(-c2nnc(NCc3ccc4cc(C5CCC(=O)NC5=O)c(C)nc4c3)o2)cc1Cl (centres unmarked) [Compound 13, 3-(7-(((5-(3-chloro-4-methylphenyl)-1,3,4-oxadiazol-2-yl)amino)methyl)-2-methylquinolin-3-yl)piperidine-2,6-dione]	–	–	–	< 10	< 10	> 6.30	< 10	> 3.16	10 to 50	< 10
Cc1ccc(NCC(=O)NCc2ccc3nc(C)c(C4CCC(=O)NC4=O)cc3c2)cc1Cl (centres unmarked) [Compound 26, 2-((3-chloro-4-methylphenyl)amino)-N-((3-(2,6-dioxopiperidin-3-yl)-2-methylquinolin-6-yl)methyl)acetamide]	–	–	–	25 to 50	< 10	6.00 to 6.30	< 10	0.316 to 3.16	10 to 50	< 10
Nc1cccc2c1C(=O)N(C1CCC(=O)NC1=O)C2=O (centres unmarked) [pomalidomide]	e (e<5%)	D (D<5 hrs)	inactive	–	–	–	–	–	–	–
